Assay results as given in ChEMBL document CHEMBL1126886, “Synthesis of 5-methyl-5-deaza nonclassical antifolates as inhibitors of dihydrofolate reductases and as potential antipneumocystis, antitoxoplasma, and antitumor agents” (J Med Chem, 1993).
One block for each compound: values may come before it.

How the values were obtained:
[1] = molecular target: T1, Dihydrofolate reductase (Rattus norvegicus, UniProt Q920D2)
T1 sequence (Q920D2 whole entry): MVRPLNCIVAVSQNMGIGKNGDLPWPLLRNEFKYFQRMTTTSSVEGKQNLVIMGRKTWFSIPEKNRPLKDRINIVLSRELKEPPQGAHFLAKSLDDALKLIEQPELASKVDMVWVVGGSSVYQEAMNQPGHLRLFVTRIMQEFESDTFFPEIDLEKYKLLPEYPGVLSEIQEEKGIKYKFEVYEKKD
Description: Inhibition of rat liver dihydrofolate reductase

[2] = molecular target: T2, Dihydrofolate reductase (Pneumocystis carinii, UniProt P16184)
T2 sequence (P16184 whole entry): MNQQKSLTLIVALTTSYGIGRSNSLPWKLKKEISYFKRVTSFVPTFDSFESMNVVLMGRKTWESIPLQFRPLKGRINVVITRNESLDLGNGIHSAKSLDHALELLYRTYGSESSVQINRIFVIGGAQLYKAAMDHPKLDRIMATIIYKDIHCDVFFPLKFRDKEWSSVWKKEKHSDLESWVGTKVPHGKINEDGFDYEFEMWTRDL
Description: Inhibition of Pneumocystis carinii dihydrofolate reductase

[3] = molecular target: T3, Bifunctional dihydrofolate reductase-thymidylate synthase (Toxoplasma gondii, UniProt Q07422); assay: Inhibition of Toxoplasma gondii dihydrofolate reductase
T3 sequence (Q07422 whole entry): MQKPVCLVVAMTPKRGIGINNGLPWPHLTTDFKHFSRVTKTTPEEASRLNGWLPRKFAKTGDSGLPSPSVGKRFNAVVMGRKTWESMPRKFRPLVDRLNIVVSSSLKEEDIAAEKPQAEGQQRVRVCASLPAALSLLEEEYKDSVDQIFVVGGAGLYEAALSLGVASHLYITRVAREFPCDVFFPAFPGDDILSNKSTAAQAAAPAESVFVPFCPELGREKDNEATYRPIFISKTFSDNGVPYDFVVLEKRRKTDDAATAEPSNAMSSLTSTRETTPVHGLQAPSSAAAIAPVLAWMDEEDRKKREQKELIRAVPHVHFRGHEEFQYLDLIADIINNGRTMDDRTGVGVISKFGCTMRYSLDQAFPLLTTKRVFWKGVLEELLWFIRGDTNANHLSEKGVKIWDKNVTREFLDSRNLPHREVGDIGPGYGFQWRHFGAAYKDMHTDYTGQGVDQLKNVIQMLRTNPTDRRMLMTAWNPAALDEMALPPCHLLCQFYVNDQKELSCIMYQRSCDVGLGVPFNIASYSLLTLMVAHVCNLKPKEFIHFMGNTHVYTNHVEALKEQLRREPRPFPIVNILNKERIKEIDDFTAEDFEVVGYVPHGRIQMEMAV

[4] = system: Toxoplasma gondii; assay: Inhibitory concentration of Toxoplasma gondii cells in human embryonic lung cells with minimum essential medium; inactive; assay type: functional, organism-based
[5] = system: MCF7S; assay: Inhibitory concentration required to decrease cell viability in cell growth culture against breast carcinoma cells MCF-7; assay type: functional, cell-based; conditions: Homo sapiens
[6] = system: CCRF-CEM; assay: Inhibitory concentration required to decrease cell viability in cell growth culture against leukemia cells CCRF-CEM; assay type: functional, cell-based; conditions: Homo sapiens
[7] = system: ACHN; assay: Inhibitory concentration required to decrease cell viability in cell growth culture against kidney cells ACHN; assay type: functional, cell-based; conditions: Homo sapiens
[8] = system: HCT-116; assay: Inhibitory concentration required to decrease cell viability in cell growth culture against colon carcinoma cells HCT116; assay type: functional, cell-based; conditions: Homo sapiens
[9] = Inhibitory concentration required to decrease cell viability in cell growth culture against melanoma SK5 MeI; assay type: functional; conditions: Homo sapiens
[10] = molecular target: T1, Dihydrofolate reductase; assay: Inhibitory concentration against rat liver dihydrofolate reductases
[11] = system: Pneumocystis carinii; assay: Inhibitory concentration against Pneumocystis carinii cells in human embryonic lung fibrobalstic cell culture with MEM at 1 ug/mL; assay type: functional, organism-based
[12] = molecular target: T4, Dihydrofolate reductase (Lactobacillus casei, UniProt P00381); assay: Inhibitory concentration against Lactobacillus casei dihydrofolate reductase; design: species or system Lacticaseibacillus casei
T4 sequence (P00381 whole entry): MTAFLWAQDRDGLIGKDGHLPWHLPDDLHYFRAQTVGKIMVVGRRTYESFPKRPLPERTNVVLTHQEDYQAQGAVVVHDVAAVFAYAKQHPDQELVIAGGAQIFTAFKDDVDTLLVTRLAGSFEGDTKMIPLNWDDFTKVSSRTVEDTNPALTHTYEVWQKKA

[13] = system: Toxoplasma gondii; assay: Inhibitory concentration of Toxoplasma gondii cells in human embryonic lung cells with minimum essential medium; assay type: functional, organism-based
[14] = system: Pneumocystis carinii; assay: (§1) Inhibitory concentration against Pneumocystis carinii cells in human embryonic lung fibrobalstic cell culture with MEM at 10 ug/mL; assay type: functional, organism-based
[15] = system: Pneumocystis carinii; assay: as §1
[16] = molecular target: T4, Dihydrofolate reductase; assay: (§2) Inhibitory concentration against Lactobacillus casei; design: species or system Lacticaseibacillus casei
[17] = system: Pneumocystis carinii; assay: microbe, parasite or virus in culture
Description: Inhibitory concentration against Pneumocystis carinii cells in human embryonic lung fibrobalstic cell culture with MEM at 250 ug/mL

[18] = system: Pneumocystis carinii; assay: Inhibitory concentration against Pneumocystis carinii cells in human embryonic lung fibrobalstic cell culture with MEM at 50 ug/mL
[19] = system: Lacticaseibacillus casei; assay: as §2; assay type: functional, organism-based

- IC50 [1]: > 2600 nM
- IC50 [2]: > 2600 nM
SMILES: COc1cc(N(C=O)CC2=CNc3nc(N)nc(N)c3C2C)cc(OC)c1OC (stereo unspecified)

SMILES: COc1cc(N(C=O)Cc2cnc3nc(N)nc(N)c3c2C)cc(OC)c1OC
- IC50 [3]: 13 nM
- IC50 [4]: Not Active
- IC50 [5]: > 100000 nM
- IC50 [6]: 610 nM
- IC50 [7]: > 112000 nM
- IC50 [8]: > 112000 nM
- IC50 [1]: 110 nM
- IC50 [9]: > 112000 nM
- IC50 [2]: 550 nM

SMILES: Cc1c(CN(C=O)c2ccc(Cl)c(Cl)c2)cnc2nc(N)nc(N)c12
- IC50 [3]: 83 nM
- IC50 [5]: 106000 nM
- IC50 [6]: 210 nM
- IC50 [10]: 140 nM
- IC50 [7]: 91400 nM
- IC50 [8]: 16000 nM
- IC50 [9]: 25100 nM
- IC50 [2]: 510 nM

- IC50 [1]: > 1200 nM
- IC50 [2]: > 1200 nM
SMILES: COc1cc(N(C=O)CC2CNc3nc(N)nc(N)c3C2C)cc(OC)c1OC (stereo unspecified)

SMILES: COc1cc(NCc2cnc3nc(N)nc(N)c3c2C)cc(OC)c1OC.O=C(O)[C@H]1O[C@H](O)[C@H](O)[C@@H](O)[C@@H]1O
- % inhibition [11]: 2%

SMILES: COc1cc(NCc2cnc3nc(N)nc(N)c3c2C)cc(OC)c1OC
- IC50 [12]: 22 nM
- IC50 [13]: 23000 nM
- % inhibition [11]: 56%
- IC50 [5]: > 100000 nM
- % inhibition [14]: 77%
- IC50 [6]: 130 nM
- IC50 [7]: > 100000 nM
- IC50 [8]: 71700 nM
- IC50 [1]: 2.1 nM
- IC50 [9]: > 100000 nM

SMILES: COc1cc(NCc2cnc3nc(N)nc(N)c3c2C)cc(OC)c1OC.O=C(O)[C@H]1OC(O)[C@H](O)[C@@H](O)[C@@H]1O
- % inhibition [15]: 57%

SMILES: Cc1c(CN(C=O)c2cc(Cl)c(Cl)c(Cl)c2)cnc2nc(N)nc(N)c12
- IC50 [3]: 94 nM
- IC50 [6]: 30 nM
- IC50 [1]: 250 nM
- IC50 [2]: 520 nM

SMILES: Cc1c(CNc2cc(Cl)c(Cl)c(Cl)c2)cnc2nc(N)nc(N)c12
- IC50 [3]: 12 nM
- IC50 [5]: > 100000 nM
- IC50 [6]: 200 nM
- IC50 [1]: 33 nM
- IC50 [2]: 63 nM

- IC50 [1]: 3700 nM
- IC50 [2]: > 3700 nM
SMILES: COc1cc(NCC2CNc3nc(N)nc(N)c3C2C)cc(OC)c1OC (stereo unspecified)

SMILES: COc1cc(N(C)Cc2cnc3nc(N)nc(N)c3c2C)cc(OC)c1OC
- IC50 [12]: 200 nM
- IC50 [13]: 4700 nM
- % inhibition [11]: 65%
- IC50 [5]: > 100000 nM
- % inhibition [14]: 74%
- IC50 [6]: 20 nM
- IC50 [7]: > 100000 nM
- IC50 [8]: 37900 nM
- IC50 [1]: 7.6 nM
- IC50 [9]: > 100000 nM

SMILES: Cc1c(CNc2ccc(Cl)c(Cl)c2)cnc2nc(N)nc(N)c12
- IC50 [3]: 28 nM
- IC50 [16]: 860 nM
- IC50 [5]: 94500 nM
- IC50 [6]: 100 nM
- IC50 [7]: 22900 nM
- IC50 [8]: 28600 nM
- IC50 [1]: 53 nM
- IC50 [9]: 7730 nM
- IC50 [2]: 320 nM

SMILES: Cc1c(CN(C)c2cc(Cl)c(Cl)c(Cl)c2)cnc2nc(N)nc(N)c12
- IC50 [3]: 38.1 nM
- IC50 [16]: 36 nM
- IC50 [5]: 18200 nM
- IC50 [6]: 200 nM
- IC50 [1]: 36.3 nM
- IC50 [2]: 105 nM

SMILES: Cc1c(CN(C)c2ccc(Cl)c(Cl)c2)cnc2nc(N)nc(N)c12
- IC50 [3]: 27 nM
- IC50 [16]: 960 nM
- IC50 [5]: 9600 nM
- IC50 [6]: 10 nM
- IC50 [7]: 70200 nM
- IC50 [8]: 5300 nM
- IC50 [1]: 42 nM
- IC50 [9]: 21200 nM
- IC50 [2]: 100 nM

SMILES: COc1cc(Cc2cnc(N)nc2N)cc(OC)c1OC.Cc1cc(NS(=O)(=O)c2ccc(N)cc2)no1 [CO-TRIMOXAZOLE]
- inhibition at 250 µg/mL [17]: 84%

SMILES: COc1cc(Cc2cnc(N)nc2N)cc(OC)c1OC [TRIMETHOPRIM]
- inhibition at 50 µg/mL [18]: 84%

SMILES: COc1cc(NCc2ccc3nc(N)nc(N)c3c2C)cc(OC)c1OC [TRIMETREXATE]
- IC50 [19]: 27 nM
